“Also recorded” adds a separate entry of the source.
Assays:
Notch1 = test: immunofluorescence staining of cleaved intracellular domain of Notch1 in MDAs; assay type: cell-based; details: vs vehicle, even in 2D culture
Description: FIG. 3B depicts immunofluorescence staining of cell nuclei and cleaved intracellular domain of Notch1 in vehicle and Isx9 treated MDAs.

MDAs [1] = test: western blot of EMT markers E-cadherin and Vimentin; assay type: cell-based
Description: Given the strong phenotypic changes induced by ISX9 in HD Col1 (FIG. 2), this example also assessed the differentiation activity of ISX9 by characterizing Epithelial-to-Mesenchymal (EMT) status using western blot (WB) analysis of E-cadherin and vimentin levels. […] FIG. 3D depicts WB of EMT markers E-cadherin and Vimentin in cancer cell lines treated with vehicle or ISX9.
To understand whether ISX9 treatment could induce Mesenchymal-to-Epithelial Transition (MET), western blotting (WB) was performed for the epithelial marker E-Cadherin (CDH1) and the Mesenchymal marker Vimentin (Vim) on 2D and HD Collagen-treated tumor cells (FIG. 4D). FIG. 4D depicts a western blot analysis of EMT markers E-cadherin and Vimentin in MDAs treated with vehicle or ISX9 for 7 days in 2D TC or HD Col1.

MDAs [2] = test: RT-qPCR of CD24 expression in MDAs, 7 days; assay type: cell-based; details: after 7 days, population level
Description: (§1) To further assess differentiation status, RT-PCR and flow cytometry (FC) was used to quantify expression of the CSC stemness biomarker signature CD44^+/CD24^− in MDAs. At the population level, MDAs increased CD24 mRNA expression ˜14-fold with ISX9 treatment after 7 days (FIG. 3E). FIG. 3E depicts RT-qPCR of CD24 expression in MD As treated with vehicle or ISX9. […] (FIG. 3F, FIG. 3G). FIG. 3F and FIG. 3G depicts flow cytometry analysis of MDAs treated with vehicle or ISX9.

MDAs [3] = test: flow cytometry of CD44+/CD24- CSC population in MDAs; assay type: cell-based
Description: as §1
Cells in 2D tissue culture and HD Collagen I were treated with ISX9 daily for 7 days, dissociated and flow-sorted. […] These figures depict fluorescence profiles of CD44/CD24 in MDAs treated with vehicle or ISX9 for 7 days in (FIG. 4A) 2D TC or (FIG. 4B) HD Col1. FIG. 4C depicts a flow cytometry analysis of CD44^+/CD24^− MDA cells treated with vehicle or ISX9.

BT-549 = test: CD24 mRNA expression in 2D for 48h; assay type: cell-based
Protocol: (§2) FIG. 3H depicts relative CD24 mRNA expression. CD24 expression was an early indicator of response to ISX9 in 2D across several TNBC cell lines. Treatment screening of several different TNBC cell lines with ISX9 in 2D for 48h yielded four responders, as determined by CD24 mRNA expression (FIG. 3H).

MDA-MB-436 = test: CD24 mRNA expression in 2D for 48h; assay type: cell-based
Protocol: as §2

MDA-MB-468 = test: CD24 mRNA expression in 2D for 48h; assay type: cell-based
Protocol: as §2

SUM149 = test: CD24 mRNA expression in 2D for 48h; assay type: cell-based
Protocol: as §2

LL/2 lung cancer cells = test: western blot of EMT transcription factor TWIST1; assay type: cell-based; details: HD Col1, 7 days
Description: FIG. 4E depicts a western blot analysis of EMT transcription factor TWIST1 in LL/2 lung cancer cells treated with vehicle or ISX9 for 7 days in 2D TC or HD Col1.

MDAs [4] = test: chemo-susceptibility to doxorubicin after pre-treatment, MTS assay; assay type: cell-based; details: 7d pre-treatment in HD Col1, then chemotherapy 3d; normalized to vehicle control
Protocol: To determine whether ISX9 could be used in a similar therapeutic function, MDAs and R40P cells were treated with vehicle or ISX9 for 7d in HD Col1, followed by chemotherapy for 3d and MTS assay to quantify viable cells.

PA-14-13 PDOs [5] = test: RT-qPCR of CD24 and CDH1 expression in PDOs; assay type: cell-based; details: 20 μM, 48 h
Protocol: (§3) As a first step towards assessing the efficacy of ISX9 to differentiate patient-derived tumor cells, PDOs from the PIM025 (“hybrid epithelial” EMT status) and PA14-13 (“hybrid mesenchymal” EMT status) TNBC PDX tumors were produced and treated with 20 μM ISX9 for 48 h. […] FIG. 8D and FIG. 8E depict RT-qPCR of CD24 and CDH1 expression in PIM025 PDOs and PA-14-13 PDOs, respectively.

PIM025 PDOs = test: RT-qPCR of CD24 and CDH1 expression in PDOs; assay type: cell-based; details: 20 μM, 48 h
Protocol: as §3

PA-14-13 PDOs [6] = test: FACS analysis of CD44+/CD24- CSCs and CDH1+ cells in PDOs; assay type: cell-based
Description: (§4) These figures depict flow cytometry analysis of CD44*/CD24 CSC in (FIG. 8F and FIG. 8G) PIM025 PDOs and (FIG. 8H and FIG. 8I) PA-14-13 PDOs treated with vehicle or ISX9.
(§5) FIG. 8J and FIG. 8K depict a flow cytometry analysis of CDH1^+ cells in PIM025 PDOs treated with vehicle or ISX9. FIG. 8L and FIG. 8M depict a flow cytometry analysis of CDH1^+ cells in PA-14-13 PDOs treated with vehicle or ISX9.

PIM-025 PDOs [7] = test: as above; assay type: cell-based
Description: as §4, §5

PA-14-13 PDOs [8] = test: sensitivity of PDOs to doxorubicin after pre-treatment; assay type: cell-based; details: pre-treatment 5d, then doxorubicin 3d
Protocol: (§6) To determine if these effects would translate to increased sensitivity to chemotherapy, both sets of PDOs were treated with ISX9 for 5d, followed by doxorubicin for 3d. […] FIG. 8P and FIG. 8Q depicts results of tests showing that PIM-025 PDOs and PA-14-13 PDOs, respectively, pre-treated with ISX9 acquire increased sensitivity to doxorubicin.

PIM-025 PDOs [9] = test: as above; assay type: cell-based; details: pre-treatment 5d, then doxorubicin 3d
Protocol: as §6

[10] = cited from earlier work

## O=C(NC1CC1)c1cc(-c2cccs2)on1 [ISX9, Isoxazole 9]
Notch1
  localization of activated Notch1 (cleaved intracellular domain): strong nucleolar localization
MDAs [1]; 2D-treated cells, 7 days
  effect on MET markers E-Cadherin and Vimentin (WB): no effect on either MET marker
MDAs [1]; 7 days in HD Col1
  E-cadherin expression (WB): increased E-cadherin expression; also recorded: increase in E-Cadherin
  Vimentin expression (WB): reduced Vimentin expression; also recorded: decrease in Vimentin
MDAs [2]
  increase of CD24 mRNA expression: ~14 fold
MDAs [3]; 2D and HD Collagen I, treated daily for 7 days
  population of CD44+/CD24- CSCs: reducing the population of CD44^+/CD24^− CSCs to a similar degree
MDAs [3]; with treatment, vehicle ˜100%
  CD44+/CD24- cells, share of the population: ~67%
BT-549
  CD24 mRNA expression (FC): ~12.6
MDA-MB-436
  CD24 mRNA expression (FC): ~7.1
MDA-MB-468
  CD24 mRNA expression (FC): ~0.6
SUM149
  CD24 mRNA expression (FC): ~2.7
LL/2 lung cancer cells
  TWIST1 protein expression (WB): reduced TWIST1 protein expression
MDAs [4]
  decrease in IC50 to doxorubicin: ~14.5 fold
PA-14-13 PDOs [5]
  upregulation of CD24: ~1,080 fold
  upregulation of CDH1: ~41 fold
PIM025 PDOs
  CDH1 mRNA expression: slight increase
  upregulation of CD24 mRNA transcription: 1.5 fold
PA-14-13 PDOs [6]; after 6 days of treatment
  CD44+/CD24- CSCs (FACS): reduction in CD44+/CD24− CSCs
PA-14-13 PDOs [6]; vs vehicle
  CDH1+ cells (FACS): enrichment in CDH1^+ cells
PIM-025 PDOs [7]; after 6 days of treatment
  CD44+/CD24- CSCs (FACS): reduction in CD44+/CD24− CSCs
PIM-025 PDOs [7]; vs vehicle
  CDH1+ cells (FACS): slight reduction in CDH1^+ cells
PA-14-13 PDOs [8]
  increase in sensitivity to doxorubicin: 85.8 fold
PIM-025 PDOs [9]
  increase in sensitivity to doxorubicin: 2.9 fold
[10]; ip injection
  detection in heart tissue: detected
[10]; single bolus ip injection
  terminal half-life in plasma: < 15 min
